Patent US9056111B1, “Selective efflux inhibitors and related pharmaceutical compositions and methods of treatment” (STC.UNM, priority 2011, dated 2015)
Entries after “also recorded” stand apart in the source; their conditions may differ.

Legend:
[1] = test system: resistant Igrov1/T8 cells; experiment: Topotecan killing of resistant cells; format: cell-based; details: Homo sapiens, IGROV-1
[2] = test system: parental Igrov1 cells; experiment: Topotecan killing of parental cells; format: cell-based; details: Homo sapiens, IGROV-1
[3] = test system: ABCG2 over-expressing Igrov1/T8 tumors; experiment: ABCG2 resistant Igrov1/T8 tumor xenograft, combination with topotecan; format: in vivo, CB-17 SCID mice
Protocol: Specific-pathogen-free adult CB-17 female SCID mice (5-6 weeks of age) weighing 20-25 g, are purchased. Briefly, ABCG2 over-expressing Igrov1/T8 cells are injected (5×10^6 cells/mouse). Prior to injection, Igrov1/T8 cells are maintained in topotecan in order to assure continuous expression of ABCG2. Tumors are allowed to grow for 3-4 weeks or until tumor volumes are greater than ˜100 cubic millimeters, at which time they are stratified into treatment groups. Treatment is administered and we observe the size of the tumor and weight of the mouse over a 7 day period. At the end of 7 days, we: 1) sacrifice the animal; 2) measure and weigh the tumor (if present); 3) analyze the histology of the tumor as well as other organs for evidence of toxicity; and 4) measure the expression of ABCG2 receptors on the tumor to determine if in vivo growth has altered ABCG2 expression. In our initial studies, we have generally observed high survival at 4 weeks (>90%) which escalates rapidly with near 100% mortality by 6 weeks. This approach is well described elsewhere.^9
Tumor-bearing mice were injected with either 150 nM TPT, 100 nM SID 88095709 (probe resupply), or 500 nM SID 85752814 (original SMR hit).
Igrov1/T8 cells were injected into the hind limbs of CB-17 SCID mice at a concentration of 1×10^7 cells in 200 μL, n of 3 per condition. The tumor was grown until the volume was in the range of 75 mm^3 to 250 mm^3. […] Injections were repeated daily and the size of the tumor was determined as a fraction of the starting size. After four days the mice were sacrificed and any recurring tumor was verified by light microscopy examination of histological sections. Mice were studied and maintained in accordance with guidelines of our Institutional Animal Research Committee at UNM HSC.

[4] = target: ABCB1 (Homo sapiens, UniProt P08183); experiment: JC-1 efflux inhibition dose response, flow cytometry, Jurkat-DNR cells; details: JC-1 efflux, Jurkat-DNR
How it was run: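 Jurkat-DNR cells pre-stained with 1 μM JC-1 were incubated with compound (final 50 μM to 69 nM, […]) at 1×10^6 cells/mL, rotated 30 min at 25° C. Retained JC-1 read by flow cytometry (488 nm excitation, 530/40 nm emission). Curves fitted to a four-parameter logistic.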

[5] = target: T1, ABCB1 / ABCG2 (Homo sapiens, UniProt Q9UNQ0); experiment: JC-1 efflux inhibition dose response, flow cytometry, Ig-MXP3 cells; details: human, probe JC-1 (1 µM), ~Fold G2 Selective (B1/G2), quotient of average ABCB1 IC50 and average ABCG2 IC50, efflux assay
T1 sequence (Q9UNQ0 1-655): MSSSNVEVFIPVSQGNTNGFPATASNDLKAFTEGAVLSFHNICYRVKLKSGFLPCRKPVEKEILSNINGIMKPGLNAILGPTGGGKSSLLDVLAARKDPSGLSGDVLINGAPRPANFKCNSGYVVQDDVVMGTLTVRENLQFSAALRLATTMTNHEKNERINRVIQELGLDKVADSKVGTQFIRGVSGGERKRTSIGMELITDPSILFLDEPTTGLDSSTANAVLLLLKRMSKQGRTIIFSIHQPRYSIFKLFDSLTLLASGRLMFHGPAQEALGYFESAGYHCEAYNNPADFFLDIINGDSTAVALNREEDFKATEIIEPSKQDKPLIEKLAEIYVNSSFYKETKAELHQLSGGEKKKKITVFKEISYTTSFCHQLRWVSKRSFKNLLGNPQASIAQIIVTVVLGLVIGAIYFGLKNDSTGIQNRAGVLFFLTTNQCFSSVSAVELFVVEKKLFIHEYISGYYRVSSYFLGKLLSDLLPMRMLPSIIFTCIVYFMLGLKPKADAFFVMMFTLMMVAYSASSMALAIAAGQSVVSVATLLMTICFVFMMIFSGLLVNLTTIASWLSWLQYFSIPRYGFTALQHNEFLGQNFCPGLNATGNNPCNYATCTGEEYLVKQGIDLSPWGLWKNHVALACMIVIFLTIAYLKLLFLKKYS
How it was run: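 Ig-MXP3 (ABCG2) and Jurkat-DNR (ABCB1) cells, run separately, are pre-stained with 1 μM JC-1 and added to compound in PBS; retained dye is read by high-throughput flow cytometry with time-gated analysis.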

[6] = test system: Ig-MXP3 cells; experiment: Direct cytotoxicity (Toxic Dose 50) without chemotherapeutic; format: cell-based; details: Ig-MXP3 cells, inhibitor without chemotherapeutic
[7] = test system: Jurkat-DNR cells; experiment: as above; details: Jurkat-DNR cells, inhibitor without chemotherapeutic
Protocol: Cells (ABCB1, Jurkat-DNR or ABCG2 Ig-MXP3) are incubated with the test compound (3 order of magnitude concentration range) over a 3-day and 7-day period in the presence of the inhibitor and chemotherapeutic (ABCB1, DNR or ABCG2 MTX), such that a cell concentration of at least 1×10^5 cells/mL is maintained. Cell viability is determined by trypan blue staining and enumeration under light microscopy. […] A chemoreversal index (Chemoreversal 50, CR50) is determined from the viability assessment. Using a similar approach, a direct cytotoxicity index (Toxic Dose 50, TD50) is determined by assessment of cell death of cells grown in media alone.
Cells (ABCB1, Jurkat-DNR or ABCG2 Ig-MXP3) were incubated with the test compound in a 3 order of magnitude concentration range over three and seven day periods in the presence of the inhibitor and chemotherapeutic (ABCB1, 100 nM DNR or ABCG2 30 nM MTX), such that a cell concentration of at least 1×10^5 cells mL^−1 was maintained. Cell viability was determined by trypan blue staining and enumeration under light microscopy. […] A chemoreversal index (Chemoreversal 50, CR50) was determined from the viability assessment. Using a similar approach, a direct cytotoxicity index (Toxic Dose 50, TD50) was determined by assessment of cell death of cells grown in media alone.

Sequence of ABCB1 (P08183 whole entry): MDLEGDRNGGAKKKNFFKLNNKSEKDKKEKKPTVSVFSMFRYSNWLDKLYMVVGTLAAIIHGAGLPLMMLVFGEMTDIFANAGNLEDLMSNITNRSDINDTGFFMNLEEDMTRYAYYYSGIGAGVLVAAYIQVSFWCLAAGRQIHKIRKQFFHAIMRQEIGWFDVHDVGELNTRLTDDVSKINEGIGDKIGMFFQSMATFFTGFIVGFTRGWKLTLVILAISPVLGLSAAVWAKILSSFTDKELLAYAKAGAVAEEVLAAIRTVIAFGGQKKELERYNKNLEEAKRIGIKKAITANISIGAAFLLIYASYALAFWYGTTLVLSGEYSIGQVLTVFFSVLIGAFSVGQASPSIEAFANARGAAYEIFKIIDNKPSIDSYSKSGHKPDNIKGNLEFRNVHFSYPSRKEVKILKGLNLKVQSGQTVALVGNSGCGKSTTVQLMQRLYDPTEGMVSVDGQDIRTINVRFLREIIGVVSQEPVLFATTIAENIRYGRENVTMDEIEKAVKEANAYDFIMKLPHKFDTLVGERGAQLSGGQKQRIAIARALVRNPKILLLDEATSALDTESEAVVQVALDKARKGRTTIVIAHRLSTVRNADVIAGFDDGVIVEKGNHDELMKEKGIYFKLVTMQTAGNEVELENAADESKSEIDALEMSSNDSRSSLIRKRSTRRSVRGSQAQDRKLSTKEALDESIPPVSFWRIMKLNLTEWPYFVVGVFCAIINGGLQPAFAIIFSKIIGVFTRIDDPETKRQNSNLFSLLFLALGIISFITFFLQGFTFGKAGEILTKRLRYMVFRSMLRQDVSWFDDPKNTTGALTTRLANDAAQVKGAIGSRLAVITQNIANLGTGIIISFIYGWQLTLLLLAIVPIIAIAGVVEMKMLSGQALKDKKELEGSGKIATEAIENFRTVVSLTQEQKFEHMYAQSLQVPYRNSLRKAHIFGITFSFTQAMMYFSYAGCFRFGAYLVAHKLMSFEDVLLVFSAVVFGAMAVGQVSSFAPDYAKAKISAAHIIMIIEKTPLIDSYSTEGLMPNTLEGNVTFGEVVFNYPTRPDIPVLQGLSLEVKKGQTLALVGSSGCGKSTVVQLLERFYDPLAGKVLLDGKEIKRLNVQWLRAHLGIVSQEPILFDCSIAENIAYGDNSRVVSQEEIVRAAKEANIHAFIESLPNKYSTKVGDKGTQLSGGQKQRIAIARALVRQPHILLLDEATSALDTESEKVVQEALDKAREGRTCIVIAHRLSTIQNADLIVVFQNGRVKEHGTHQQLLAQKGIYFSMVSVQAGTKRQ

Compound	EC50 [1] [nM]	EC50 [2] [nM]	tumor size, topotecan alone ([3]; 100 nM topotecan alone, Example 3)	tumor size, single agent ([3]; 150 nM TPT, 100 nM SID 88095709 or 500 nM SID 85752814 alone, listed as TPT)	efflux inhibition activity ABCB1 [4]	selectivity ratio at 30 min [5]	Tumor size reduced by ([3]; 100 nM topotecan + 100 nM compound intra-tumorally every 24 hours, 5 days (120 hours), n=5) [%]	tumor size, inhibitor alone ([3]; inhibitor alone (100 nM or 500 nM as printed), Example 3)	TD50 ABCG2 [6] [µM]	TD50 ABCB1 [7] [µM]
CC[C@@]1(O)C(=O)OCc2c1cc1n(c2=O)Cc2cc3c(CN(C)C)c(O)ccc3nc2-1 [Topotecan, reference compound]	311	7	No reduction in size	remained the same or increased; also recorded: did not affect the growth of tumors						
COc1cccc(-c2cc3nc(C)c(C)c(N4CCN(Cc5ccoc5)CC4)n3n2)c1 [SID 97301789]					abolished activity	233	55	No reduction in size	> 100	> 100
